Reference: US20220142959A1, “LEUCINE, ACETYL LEUCINE, AND RELATED ANALOGS FOR TREATING DISEASE” (priority 2019, published 2022)

Assays:
α-fodrin = assay: Western blot of α-fodrin cleavage products in cortex after CCI induced TBI; assay type: in vivo, mice; settings: NALL fed vs vehicle fed mouse cortices after TBI; oral gavage 10 mg/kg daily 4 days plus chow
Protocol: Controlled cortical impact (CCI) induced TBI was performed in male C57BL6/J mice (20-25 g). Briefly, after a 10-mm midline incision was made over the skull, the skin and fascia were retracted, and a 4-mm craniotomy was made on the central aspect of the left parietal bone of mice under surgical anesthesia (2-3% isoflurane evaporated in a gas mixture containing 70% N20 and 30% 02). Moderate injury was induced in the exposed brain by a custom microprocessor-controlled and compressed air driven pneumatic impactor of 3.5 mm diameter tip with the impact velocity of 6 m/s and a deformation depth of 2 mm. […]
The level of α-fodrin cleavage products in NALL treated, vehicle treated sham, and TBI mouse cortices were determined by Western blot analysis and using the TUNEL assay to assess whether NALL treatment decreases cortical cell death after TBI.
Around 5 mm tissue of ipsilateral cortex around the site of injury from TBI mice or the corresponding tissue of same volume around the same cortical region from sham mice were dissected and processed. […] Protein bands were detected using chemiluminiscence kit (Pierce, 34076) and visualized using Chemi-doc system (Bio-Rad). Band intensity was analyzed using Image Lab software (Bio-Rad) and normalized to loading control (β-Actin). […]

LC3-II and APP-CTFs = assay: EAL flux in NPC1 mice (cerebellum LC3-II and APP-CTFs); assay type: in vivo, mouse; settings: treated 3 weeks
Source text: FIG. 14 is a histogram of the ratio of LC3-II expression to βIII-tubulin in the cerebellum of mouse NPC1 brains at 9-12 weeks of age treated with ADLL, ALL, ADL, DLL, LL, DL, LLE, and miglustat (miglu.) for 3 weeks relative to untreated NPC1 cerebellum (n=4, mean±S.E.M).
FIG. 15 is a histogram of the ratio of APP-CTFs: full-length APP expression in the cerebellum of mouse NPC1 brains at 9-12 weeks of age treated with ADLL, ALL, ADL, DLL, LL, DL, LLE, and miglustat (miglu.) for 3 weeks relative to untreated NPC1 cerebellum (n=4, mean±S.E.M).
FIG. 16 is a histogram of the ratio of APP-CTF-6: full-length APP expression in the cerebellum of mouse NPC1 brains at 9-12 weeks of age treated with ADLL, ALL, ADL, DLL, LL, DL, and LLE for 3 weeks relative to untreated NPC1 cerebellum.
FIG. 17 is a histogram of the ratio of APP-CTF-7: full-length APP expression in the cerebellum of mouse NPC1 brains at 9-12 weeks of age treated with ADLL, ALL, ADL, DLL, LL, DL, and LLE for 3 weeks relative to untreated NPC1 cerebellum (n=4, mean±S.E.M).
The efficacy of ADLL, ALL, ADL, DLL, LL, DL, and LLE in alleviating the impairment of EAL flux in NPC1 mice was investigated. […] Without wishing to be bound by any particular theory, it is possible that ADL and LLE reduced autophagic vacuole (AV) build-up by inhibiting autophagosome formation, possibly through the activation mTORC1. […] Also, acetyl L-leucine (ALL), acetyl D-leucine (ADL) and L-leucine (LL) reduced CTF-7 expression, indicating some improvement in lysosomal proteolysis (FIG. 17).

SMILES: CC(=O)N[C@@H](CC(C)C)C(=O)O [ALL, acetyl-L-leucine]
- level of 145-150 kDa fragments of α-fodrin (α-fodrin): lower level
- CTF-7 expression / clearance (LC3-II and APP-CTFs): reduced
